In US7820699B2, “Cyclic amines” (Hoffmann-La Roche Inc., priority 2005, dated 2010):

Each compound was assayed against T1, human factor Xa (Homo sapiens, UniProt P00742) (assay: chromogenic peptide substrate assay, inhibition of factor Xa). Settings: human factor Xa 3 nM, chromogenic substrate S-2222, pH 7.8, room temperature; Ki from IC50 by Cheng-Prusoff.
T1 construct: purchased Enzyme Research Laboratories
Type: biochemical
Method: Factor Xa activity was measured spectrophotometrically in microtiter plates in a final volume of 150 μl using the following conditions: Inhibition of human factor Xa (Enzyme Research Laboratories) was tested at an enzyme concentration of 3 nM using the chromogenic substrate S-2222 (Chromogenix AB, Molndal, Sweden) at […]. The reaction kinetics of the enzyme and the substrate were linear with both time and the enzyme concentration. The inhibitors were dissolved in DMSO and tested at various concentrations up to 100 μM. The inhibitors were diluted using HNPT buffer consisting of HEPES 100 mM, NaCl 140 mM, PEG 6000 0.1% and Tween 80 0.02%, pH 7.8. The cleavage of S-2222 by human factor Xa was followed at 405 nm for 5 minutes at room temperature. The velocity of the reaction was determined by the autoreader from the slope of the linear regression fit to 7 time points (1 minute). The initial velocity for each inhibitor concentration was determined by the slope of at least 4 time points in the linear phase by a linear regression fit […]. Apparent dissociation constants Ki were calculated according to Cheng and Prusoff [Cheng, Y. C.; Prusoff, W. H. Relationship between the inhibition constant (Ki) and the concentration of the inhibitor that causes 50 percent inhibition (IC50) of an enzyme reaction. Biochem. Pharmacol. 1973, 22, 3099-3108.] based on the IC50 and the respective Km, determined previously (Ki=IC50/(1+S/Km)). The Km for the substrate used was determined under the conditions of the test with at least 5 substrate concentrations ranging from 0.5 to 15 times Km. [Lottenberg R, Hall J A, Blinder M, Binder E P, Jackson C M., The action of thrombin on peptide p-nitroanilide substrates. Substrate selectivity and examination of hydrolysis under different reaction conditions. Biochim Biophys Acta. 1983 Feb. 15; 742(3):539-57]. According to Eadie [Eadie G. S. The inhibition of cholinesterase by physostigmine and prostigmine. J. Biol. Chem. 1942, 146, 85-93.], the Km for S-2222 amounted to 613 μM.

T1 sequence (P00742 235-488 limits assumed): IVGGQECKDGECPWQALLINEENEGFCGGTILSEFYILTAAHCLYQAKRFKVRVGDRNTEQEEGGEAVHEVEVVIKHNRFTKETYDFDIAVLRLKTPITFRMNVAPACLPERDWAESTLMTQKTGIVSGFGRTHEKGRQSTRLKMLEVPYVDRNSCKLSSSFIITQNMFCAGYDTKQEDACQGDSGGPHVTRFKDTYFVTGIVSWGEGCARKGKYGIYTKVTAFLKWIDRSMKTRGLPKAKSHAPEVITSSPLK
T1 sequence (P00742 41-179 partner limits assumed): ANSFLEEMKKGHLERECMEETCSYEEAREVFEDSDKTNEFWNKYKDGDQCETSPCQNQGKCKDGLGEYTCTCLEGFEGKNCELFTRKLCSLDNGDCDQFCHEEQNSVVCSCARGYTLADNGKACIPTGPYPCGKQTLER

| Compound | Ki |
| --- | --- |
| CC(C(=O)Nc1ccc(-n2ccccc2=O)cc1F)N1CC[C@@H](NC(=O)c2ccc(Cl)s2)C1 (stereo partly drawn) [Example 6, 5-chloro-thiophene-2-carboxylic acid ((R)-1-{1-[2-fluoro-4-(2-oxo-pyridin-1-yl)-phenylcarbamoyl]-ethyl}-pyrrolidin-3-yl)-amide] | 0.017 µM |
| CO[C@H]1CN(CC(=O)Nc2ccc(N3CCOCC3=O)cc2F)C[C@@H]1NC(=O)c1ccc(Cl)s1 [Example 26, 5-chloro-thiophene-2-carboxylic acid ((3S,4S)-1-{[2-fluoro-4-(3-oxo-morpholin-4-yl)-phenylcar-bamoyl]-methyl}-4-methoxy-pyrrolidin-3-yl)-amide] | 0.014 µM |
| O=C(NC[C@H]1CCN(C(=O)Nc2ccc(-n3ccccc3=O)cc2F)C1)c1ccc(Cl)s1 [Example 54, (R)-3-{[(5-chloro-thiophene-2-carbonyl)-amino]-methyl}-pyrrolidine-1-carboxylic acid[2-fluoro-4-(2-oxo-2H-pyridin-1-yl)-phenyl]-amide] | 0.013 µM |
| O=C(NC[C@@H]1CN(C(=O)Nc2ccc(-n3ccccc3=O)cc2F)C[C@H]1C(F)(F)F)c1ccc(Cl)s1 [Example 77, (3R,4S)-3-{[(5-chloro-thiophene-2-carbonyl)-amino]-methyl}-4-trifluoromethyl-pyrrolidine-1-carboxy-lic acid[2-fluoro-4-(2-oxo-2H-pyridin-1-yl)-phenyl]-amide] | 0.008 µM |
| CN(C1CN(C(=O)Nc2ccc(-n3ccccc3=O)cc2F)C[C@H]1CNC(=O)c1ccc(Cl)s1)S(C)(=O)=O (stereo partly drawn) [Example 85, (R)-3-{[(5-chloro-thiophene-2-carbonyl)-amino]-methyl}-4-(methanesulfonyl-methyl-amino)-pyrrolidine-1-carboxylic acid[2-fluoro-4-(2-oxo-2H-pyridin-1-yl)-phenyl]-amide] | 0.012 µM |
